“Also recorded” adds a separate entry of the source.
Tests used:
[1] = tested on: E2F1 in normal colon cells (NCM460); assay: E2F1 level in whole cell extracts, SDS/PAGE and enhanced chemiluminescence, normal colon cells; type: cell-based, human; details: NCM460, 2 μM, 20 minute to 4 hour exposures
Procedure: (§1) Human colon cancer cells (SW480) and normal colon cells (NCM460) are treated with β-lapachone at a concentration of 2 μM and are harvested after 20 minute, 1 hour, 2 hour, or 4 hour exposures. Whole cell extracts are prepared and resolved by SDS/PAGE. An enhanced chemiluminescence assay system (Amersham Pharmacia) is used to determine the E2F1 level. Monoclonal antibody against […] is obtained from Santa Cruz Biotechnology (Santa Cruz, Calif.). […] Elevation of E2F1 following exposure to β-lapachone persists through cell death in cancer cells.

[2] = tested on: BRCA1 in human colon cancer cells (SW480); assay: Relative expression of cell cycle checkpoint genes, Human Cell-cycle Checkpoint GEArray Kit; type: cell-based; details: SW480, 2 μM, 4 hours, vs carrier alone
Procedure: Exponentially growing human colon cancer cells (SW480) are treated with β-lapachone at 2 μM, or carrier alone control, for 4 hours. Total RNA is prepared by Trizol reagents. Relative expression levels of multiple genes involved in cell cycle checkpoint are determined with the Human Cell-cycle Checkpoint GEArray Kit (SuperArray Inc. Bethesda, Md.) (FIG. 3). The up-regulation of the E2F1 target BRCA1 in β-lapachone treated cancer cells is another indication of E2F1 activation. BRCA1 is a tumor suppressor involved in many roles within the cell including DNA repair.

[3] = tested on: E2F1 in human colon cancer cells (SW480); assay: E2F1 level in whole cell extracts, SDS/PAGE and enhanced chemiluminescence, colon cancer cells; type: cell-based; details: SW480, 2 μM, 20 minute to 4 hour exposures
Procedure: as §1

[4] = tested on: C57BL/6J inbred strain female mice; assay: Radiation-induced leukopenia after whole body irradiation, leukocyte count (Example 8); type: in vivo; details: for L % (percentage of lymphocytes) / M % (percentage of monocytes) / N % (percentage of neutrophils) / WBC: 40 mg/kg i.p. 0.5 hour before 8 Gy
Procedure: (§2) The effect of β-lapachone pre-treatment on radiation-induced leukopenia (e.g., radiation-induced neutropenia, monocytopenia, or lymphocytopenia, or subcombinations thereof) following whole body gamma irradiation in mice, with and without pretreatment with β-lapachone, is assessed as follows. β-lapachone is prepared at 10 mg/ml in 40% hydroxypropyl-beta-cyclodextrin (HPBCD). C57BL/6J inbred strain female mice (4-5 weeks old) are organized into three groups of six mice each: Group I mice receive no radiation, no β-lapachone, and no carrier; Group II mice receive radiation and are injected with carrier (40% HPBCD 4 ml/kg body weight); and Group III mice are injected intraperitoneally at 0.5 hour before irradiation with β-lapachone (40 mg/kg body weight). Whole body irradiation of animals with 8 Gy (lethal radiation) or 5 Gy (sublethal radiation) of γ-rays is carried out in air at room temperature in a gamma chamber (Gammacell 40 Exactor), with a dose-rate of 1.05 Gy/min. This radiation dose is within the range of equivalent human exposures predicted in many scenarios of radiologic or nuclear terrorist attack. Following irradiation, animals are maintained in a climate-controlled animal facility. Three mice in each of Groups I, II, and III are sacrificed on day five following irradiation, and an analysis of radiation-induced leukopenia is performed for each. The remaining mice are sacrificed on day eight following irradiation, and an analysis of radiation-induced leukopenia is performed for each. Leukocytes are counted automatically using a hemacytometer counter in the animal facility at MIT.

[5] = tested on: C57BL/6J inbred strain female mice; assay: Thymic cellularity after whole body irradiation, hematoxylin-eosin sections (Example 7a); type: in vivo; details: 40 mg/kg i.p. 0.5 hour before 8 Gy; day five
Procedure: as §2, with “β-lapachone” for “The effect of β-lapachone pre-treatment on radiation-induced leukopenia (e.g., radiation-induced neutropenia, monocytopenia, or lymphocytopenia, or subcombinations thereof) following whole body gamma irradiation in mice, with and without pretreatment with β-lapachone, is assessed as follows. β-lapachone”, “Gy” for “Gy (lethal radiation) or 5 Gy (sublethal radiation)”, “thymic cellularity” for “radiation-induced leukopenia”, “Thymic cellularity is qualitatively assessed” for “Leukocytes are counted automatically using a hemacytometer counter”, “sections stained with hematoxylin-eosin following standard procedures.” for “the animal facility at MIT.”

[6] = tested on: C57BL/6J inbred strain female mice; assay: Survival after 8 Gy whole body γ-irradiation, intraperitoneal dosing 4 hours before or after (Example 4); type: in vivo; details: for No. of animals surviving at 20 days post-irradiation: 4 animals; for Death rate (%): 20 days
Procedure: β-lapachone is prepared at 10 mg/ml in 40% hydroxypropyl-beta-cyclodextrin (HPBCD).
C57BL/6J inbred strain female mice (4-5 weeks old) are used. Animals are maintained in a climate-controlled animal facility.
Animals are injected with different concentrations of β-lapachone (20 and 40 mg/kg body weight) intraperitoneally 4 hours before or after irradiation.
Whole body irradiation of animals with 8 Gy of γ-rays is carried out in air at room temperature in a gamma chamber (Gammacell 40 Exactor), at a dose-rate of 1.05 Gy/min. This radiation dose is within the range of equivalent human exposures predicted in many scenarios of radiologic or nuclear terrorist attack.
Mice are divided into the following groups (each Group comprises four mice receiving identical treatment):
Group II: Mice are injected with β-lapachone 20 mg/kg body weight 4 hours before radiation.
Group III: Mice are injected with β-lapachone 40 mg/kg body weight 4 hours before radiation.
Group IV: Mice are injected with β-lapachone 20 mg/kg body weight 4 hours after radiation.
Group V: Mice are injected with β-lapachone 40 mg/kg body weight 4 hours after radiation.
Group VI: Mice are injected with amifostine 10 mg/kg body weight 4 hours before radiation.
Animals are irradiated with 8 Gy at 1.05 Gy/min dose-rate. After irradiation mice are returned to their cage and observed on a regular basis. Exposure to γ-rays causes lethality in animals. Importantly, treatment with β-lapachone, especially at a level of 40 mg/kg prior to irradiation, diminishes the death rate.

[7] = 20 mg/kg i.p. 4 hr after Radiation 8 Gy
[8] = 20 mg/kg i.p. 4 hr before Radiation 8 Gy
[9] = 40 mg/kg i.p. 4 hr before Radiation 8 Gy
[10] = Radiation 8 Gy 4 hr → 20 mg/kg as printed (second such line of Table 1)

With `CC1(C)CCC2=C(O1)c1ccccc1C(=O)C2=O` [β-lapachone, 3,4-dihydro-2,2-dimethyl-2H-naphtho[1,2-b]pyran-5,6-dione] the E2F1 level [1] was “not in similarly treated normal human colon cells”, the “BRCA1 relative expression level” value [2] was “induces increased expression; also recorded: up-regulation” and the E2F1 level [3] was “Elevation of E2F1 is seen in tumor cells; also recorded: induces increased expression of E2F1”. The “L % (percentage of lymphocytes)” value ([4]; Day 5) was 66.24%, the “M % (percentage of monocytes)” value ([4]; Day 5) was 8.13% and the “N % (percentage of neutrophils)” value ([4]; Day 5) was 19.1%. For the same compound, the WBC ([4]; Day 5) was 0.53 ± 0.4 1000 cells/ml, the “L % (percentage of lymphocytes)” value ([4]; Day 8) was 52.69% and the “M % (percentage of monocytes)” value ([4]; Day 8) was 13.23%. For the same compound, the “N % (percentage of neutrophils)” value ([4]; Day 8) was 20.29%, the WBC ([4]; Day 8) was 0.37 ± 0.24 1000 cells/ml and the “Protection against radiation-induced neutropenia, monocytopenia, and lymphocytopenia” value ([4]; pretreatment, 8 Gy, day 5 and day 8, P<0.05) was “partially protects”. The “Thymic cellularity in thymic sections (FIG. 8)” value [5] was “preserves thymic cellularity”, the “Median survival time” value [6, 7] was 14 days and the “No. of animals surviving at 20 days post-irradiation” value (“No. of animals surviving” for short) [6, 7] was 1. For the same compound, the “Death rate (%)” value [6, 7] was 75%, the “Median survival time” value [6, 8] was 13.5 days and the “No. of animals surviving” value [6, 8] was 0. The “Death rate (%)” value [6, 8] was 100%, the “Median survival time” value ([6]; 40 mg/kg i.p. 4 hr after Radiation 8 Gy) was 16.4 days and the “Median survival time” value [6, 9] was 25 days. For the same compound, the “No. of animals surviving” value [6, 9] was 3, the “Death rate (%)” value [6, 9] was 25% and the “Temporal survival pattern (FIG. 5)” value ([6]; 20, 40 mg/kg i.p., 4 hours before or after 8 Gy, vs control decline at 10-14 days) was “delayed this early decline in survival”. The “No. of animals surviving” value [6, 10] was 0 and the “Death rate (%)” value [6, 10] was 100%.
